Active and inactive are the calls of the source. The rule behind the calls is not given here.
Legend:
A549 = test: Anti-proliferative activity against human A549 cells assessed as reduction in cell proliferation incubated for 72 hrs by MTT assay; assay type: functional, cell-based; settings: A549, 72 h
PC-9 = test: Anti-proliferative activity against human PC-9 cells assessed as reduction in cell proliferation incubated for 72 hrs by MTT assay; assay type: functional, cell-based; settings: PC-9, 72 h
NCI-H1975 = test: Anti-proliferative activity against human NCI-H1975 cells assessed as reduction in cell proliferation incubated for 72 hrs by MTT assay; assay type: functional, cell-based; settings: NCI-H1975, 72 h
[1] = test system: Protein cereblon/Epidermal growth factor receptor (Homo sapiens), P00533+Q96SW2 [L858R,T790M]; test: Protac activity at CRBN/EGFR L858R/T790M mutant in human NCI-H1975 cells assessed as L858R/T790M mutant degradation at 3 uM incubated for 48 hrs by Western blot analysis; assay type: cell-based
[2] = target: Epidermal growth factor receptor (Homo sapiens, UniProt P00533); test: Inhibition of wild type EGFR (unknown origin) incubated for 10 mins by HTRF KinEASE-TK assay
[3] = target: Epidermal growth factor receptor (Homo sapiens, UniProt P00533, L858R/T790M); test: Inhibition of EGFR L858R/T790M mutant (unknown origin) incubated for 35 mins by HTRF KinEASE-TK assay
Homo sapiens = species on record: Homo sapiens; test: Selectivity index, ratio of IC50 for wild type EGFR (unknown origin) to IC50 for Protein cereblon/Epidermal growth factor receptor L858R/T790M mutant

Row | Compound | IC50 (A549) | IC50 (PC-9) | IC50 (NCI-H1975) | Activity [1] | IC50 [2] | IC50 [3] | Ratio IC50 (Homo sapiens)
1 | C=CC(=O)Nc1cccc(Nc2nc(Nc3ccc(N4CCN(CC(=O)NCCCCCNc5cccc6c5C(=O)N(C5CCC(=O)NC5=O)C6=O)CC4)cc3OC)ncc2C(F)(F)F)c1 (configuration not stated) | > 100 µM | 3.43 µM | 0.52 µM | – | – | – | –
2 | C=CC(=O)Nc1cccc(Nc2nc(Nc3ccc(N4CCN(CC(=O)NCCCCCNC(=O)CNc5cccc6c5C(=O)N(C5CCC(=O)NC5=O)C6=O)CC4)cc3OC)ncc2C(F)(F)F)c1 (configuration not stated) | > 100 µM | 14.4 µM | 12.8 µM | – | – | – | –
3 | C=CC(=O)Nc1cccc(Nc2nc(Nc3ccc(N4CCN(C(=O)CCCCCCCC(=O)Nc5cccc6c5C(=O)N(C5CCC(=O)NC5=O)C6=O)CC4)cc3OC)ncc2C(F)(F)F)c1 (configuration not stated) | > 100 µM | 5.31 µM | 1.53 µM | – | – | – | –
4 | C=CC(=O)Nc1cccc(Nc2nc(Nc3ccc(N4CCN(C(=O)CCCCCCCCC(=O)Nc5cccc6c5C(=O)N(C5CCC(=O)NC5=O)C6=O)CC4)cc3OC)ncc2C(F)(F)F)c1 (configuration not stated) | > 100 µM | 26.7 µM | 17 µM | – | – | – | –
5 | C=CC(=O)Nc1cccc(Nc2nc(Nc3ccc(N4CCN(C(=O)CCCCCCCCCCC(=O)Nc5cccc6c5C(=O)N(C5CCC(=O)NC5=O)C6=O)CC4)cc3OC)ncc2C(F)(F)F)c1 (configuration not stated) | > 100 µM | 8.77 µM | 8.55 µM | – | – | – | –
6 | C=CC(=O)Nc1cccc(Nc2nc(Nc3ccc(N4CCN(CC(=O)NCCCCCCNC(=O)CNc5cccc6c5C(=O)N(C5CCC(=O)NC5=O)C6=O)CC4)cc3OC)ncc2C(F)(F)F)c1 (configuration not stated) | > 100 µM | 6.61 µM | 17 µM | – | – | – | –
7 | C=CC(=O)Nc1cccc(Nc2nc(Nc3ccc(N4CCN(C(=O)CCCCCCCCCC(=O)Nc5cccc6c5C(=O)N(C5CCC(=O)NC5=O)C6=O)CC4)cc3OC)ncc2C(F)(F)F)c1 (configuration not stated) | > 100 µM | 3.69 µM | 2.81 µM | – | – | – | –
8 | C=CC(=O)Nc1cccc(Nc2nc(Nc3ccc(N4CCN(C(=O)CCCCC(=O)Nc5cccc6c5C(=O)N(C5CCC(=O)NC5=O)C6=O)CC4)cc3OC)ncc2C(F)(F)F)c1 (configuration not stated) | > 100 µM | 4.62 µM | 1.56 µM | – | – | – | –
9 | C=CC(=O)Nc1cccc(Nc2nc(Nc3ccc(N4CCN(CC(=O)NCCCNC(=O)CNc5cccc6c5C(=O)N(C5CCC(=O)NC5=O)C6=O)CC4)cc3OC)ncc2C(F)(F)F)c1 (configuration not stated) | > 100 µM | 7.67 µM | 7.35 µM | – | – | – | –
10 | C=CC(=O)Nc1cccc(Nc2nc(Nc3ccc(N4CCN(C(=O)CCCCNc5cccc6c5C(=O)N(C5CCC(=O)NC5=O)C6=O)CC4)cc3OC)ncc2C(F)(F)F)c1 (configuration not stated) | > 100 µM | 6.74 µM | 1.09 µM | Active | 0.614 µM | 0.121 µM | 5
11 | C=CC(=O)Nc1cccc(Nc2nc(Nc3ccc(N4CCN(CC(=O)NCCNc5cccc6c5CN(C5CCC(=O)NC5=O)C6=O)CC4)cc3OC)ncc2C(F)(F)F)c1 (configuration not stated) | 33.3 µM | 4.86 µM | 8.36 µM | – | 2.4 µM | 0.965 µM | 2.5
12 | C=CC(=O)Nc1cccc(Nc2nc(Nc3ccc(N4CCN(C(=O)CCCCCCC(=O)Nc5cccc6c5C(=O)N(C5CCC(=O)NC5=O)C6=O)CC4)cc3OC)ncc2C(F)(F)F)c1 (configuration not stated) | > 100 µM | 2.55 µM | 5.02 µM | – | – | – | –
13 | C=CC(=O)Nc1cccc(Nc2nc(Nc3ccc(N4CCN(CC(=O)NCCNC(=O)CNc5cccc6c5C(=O)N(C5CCC(=O)NC5=O)C6=O)CC4)cc3OC)ncc2C(F)(F)F)c1 (configuration not stated) | > 100 µM | 13.4 µM | 8.89 µM | – | – | – | –
14 | C=CC(=O)Nc1cccc(Nc2nc(Nc3ccc(N4CCN(C(=O)CCCCCCCCCCCCC(=O)Nc5cccc6c5C(=O)N(C5CCC(=O)NC5=O)C6=O)CC4)cc3OC)ncc2C(F)(F)F)c1 (configuration not stated) | > 100 µM | 46.5 µM | 62 µM | – | – | – | –
15 | C=CC(=O)Nc1cccc(Nc2nc(Nc3ccc(N4CCN(CC(=O)NCCNc5cccc6c5C(=O)N(C5CCC(=O)N(C)C5=O)C6=O)CC4)cc3OC)ncc2C(F)(F)F)c1 (configuration not stated) | > 100 µM | 1.89 µM | 4.68 µM | – | 1.4 µM | 0.134 µM | 11
16 | C=CC(=O)Nc1cccc(Nc2nc(Nc3ccc(N4CCN(CC(=O)NCCNc5ccc6c(c5)C(=O)N(C5CCC(=O)NC5=O)C6=O)CC4)cc3OC)ncc2C(F)(F)F)c1 (configuration not stated) | > 100 µM | 3.51 µM | 4.72 µM | – | – | – | –
17 | C=CC(=O)Nc1cccc(Nc2nc(Nc3ccc(N4CCN(C(=O)CCCCCCCCCCCC(=O)Nc5cccc6c5C(=O)N(C5CCC(=O)NC5=O)C6=O)CC4)cc3OC)ncc2C(F)(F)F)c1 (configuration not stated) | > 100 µM | 18.1 µM | 17.1 µM | – | – | – | –
18 | C=CC(=O)Nc1cccc(Nc2nc(Nc3ccc(N4CCN(C(=O)CCCCCC(=O)Nc5cccc6c5C(=O)N(C5CCC(=O)NC5=O)C6=O)CC4)cc3OC)ncc2C(F)(F)F)c1 (configuration not stated) | 29.8 µM | 0.9 µM | 0.59 µM | Active | 0.648 µM | 0.0203 µM | 32
19 | C=CC(=O)Nc1cccc(Nc2nc(Nc3ccc(N4CCN(C(C)=O)CC4)cc3OC)ncc2C(F)(F)F)c1 [ROCILETINIB] | 7.57 µM | 0.27 µM | 0.13 µM | – | – | – | –
20 | C=CC(=O)Nc1cccc(Nc2nc(Nc3ccc(N4CCN(CC(=O)NCCCNc5cccc6c5C(=O)N(C5CCC(=O)NC5=O)C6=O)CC4)cc3OC)ncc2C(F)(F)F)c1 (configuration not stated) | > 100 µM | 2.58 µM | 5.76 µM | – | – | – | –
21 | C=CC(=O)Nc1cccc(Nc2nc(Nc3ccc(N4CCN(CCOCCNc5cccc6c5C(=O)N(C5CCC(=O)NC5=O)C6=O)CC4)cc3OC)ncc2C(F)(F)F)c1 (configuration not stated) | 36.9 µM | 0.5 µM | 0.22 µM | Active | 0.364 µM | 0.0241 µM | 15
22 | C=CC(=O)Nc1cccc(Nc2nc(Nc3ccc(N4CCN(CC(=O)NCCCCCCNc5cccc6c5C(=O)N(C5CCC(=O)NC5=O)C6=O)CC4)cc3OC)ncc2C(F)(F)F)c1 (configuration not stated) | > 100 µM | 3.28 µM | 4.14 µM | – | – | – | –
23 | C=CC(=O)Nc1cccc(Nc2nc(Nc3ccc(N4CCN(CC(=O)NCCCCNC(=O)CNc5cccc6c5C(=O)N(C5CCC(=O)NC5=O)C6=O)CC4)cc3OC)ncc2C(F)(F)F)c1 (configuration not stated) | > 100 µM | 13.2 µM | 11.7 µM | – | – | – | –
24 | C=CC(=O)Nc1cccc(Nc2nc(Nc3ccc(N4CCN(CC(=O)NCCOc5cccc6c5C(=O)N(C5CCC(=O)NC5=O)C6=O)CC4)cc3OC)ncc2C(F)(F)F)c1 (configuration not stated) | > 100 µM | 7.34 µM | 9.31 µM | – | – | – | –
25 | C=CC(=O)Nc1cccc(Nc2nc(Nc3ccc(N4CCN(C(=O)CCCC(=O)Nc5cccc6c5C(=O)N(C5CCC(=O)NC5=O)C6=O)CC4)cc3OC)ncc2C(F)(F)F)c1 (configuration not stated) | > 100 µM | 1.35 µM | 0.95 µM | Active | 3.23 µM | 0.033 µM | 98

Source: ChEMBL document CHEMBL5113409, “Design and synthesis of proteolysis targeting chimeras (PROTACs) as an EGFR degrader based on CO-1686” (Eur J Med Chem, 2022)
